How the values were obtained:
[1] = system: cerebellar neurons on purified, immobilized myelin; assay: Priming of cerebellar neurons with rolipram; neurite outgrowth on purified, immobilized myelin; format: cell-based, rat; conditions: priming with rolipram 0.25 uM, FIG. 2B
Experimental: (§1) Isolated cerebellar neurons in SATO media (prepared as in Example 1) were plated onto poly-L-lysine-coated dishes at 1×10^6 cells/dish. Where indicated, either BDNF at a concentration of 200 ng/ml, or rolipram at a concentration 0.1 uM or 0.25 uM (all from Sigma) was added. After culture for 18 hours (termed priming), neurons were removed with 0.1% trypsin. Trypsinization was stopped by adding 5 ml of DMEM containing 10% FCS. The primed neurons were centrifuged at 800 rpm for 6 min and resuspended in SATO media. The concentration of cells were adjusted to 6×10^4 cells/ml. […] Myelin was prepared as described previously (Cai et al., 1999) from rat CNS white matter. Neurons were cultured overnight before being fixed and immunostained for GAP43 to visualize the neurites. The length of the longest neurite per neuron, from 180-200 neurons, was measured. Results are presented as the average length+/−SEM in micrometers (um). (See, e.g., U.S. Pat. Nos. 5,932,542 and 6,203,792).

[2] = system: DRG neurons on MAG-expressing CHO cells; assay: Subcutaneous rolipram injections into P30 rats; neurite outgrowth of isolated DRG neurons on MAG-expressing CHO cells; format: in vivo, rat
Experimental: (§2) In order to determine whether a PDE4 specific inhibitor could be used to prime neurons in vivo and prevent inhibition of neurite outgrowth by myelin and MAG, rolipram was injected subcutaneously into P12 and P30 rats every 3 hours for 24 hours. For all experiments, rolipram was dissolved in DMSO and sterile saline was added to adjust the concentrations. The final volume of the rolipram solution was 0.2 ml for each injection. At each time point, a single rolipram injection was given. Rolipram was injected subcutaneously with insulin syringes (Becton Dickinson 1 ccU-100 insulin Syringe) under the skin of the rat's neck (for all experiments) and in various other regions (only for first experiment using P12 rats). Control animals were injected with a 0.2 ml mixture of DMSO and sterile saline without rolipram, following the same schedule.
In a second series of experiments, we injected increasing concentrations of rolipram subcutaneously into older animals (postnatal day 30; P30) every 3 hours for 24 hours and, as above, studied neurite outgrowth of isolated DRG neurons in the presence or absence of MAG.
(§3) DRG neurons were isolated from control and treated P30 animals and plated onto a monolayer of MAG-expressing CHO cells or a monolayer of control CHO cells. Neurons were cultured overnight before being fixed and immunostained for GAP43 to visualize the neurites, as described in Example 1. The length of the longest neurite per neuron from 180-200 neurons was measured. Results are expressed as a percentage of growth of the neurons isolated from control animals and are shown as the average length+/−SEM presented as a percentage of growth on control cells.
We next determined whether the effects of rolipram were time dependent. Rolipram (0.5 umol/kg) was administered by repeated subcutaneous injections to P30 rats for increasing amounts of time. DRG neurons were isolated from control and treated animals and plated onto a monolayer of MAG-expressing CHO cells or a monolayer of control CHO cells. Neurons were cultured overnight before being fixed and immunostained for GAP43 to visualize the neurites. The lengths of the longest neurite per neuron from 180-200 neurons were measured. Results are expressed as a percentage of growth of the neurons isolated from control animals and are shown as the average length+/−SEM presented as percentage of growth on control cells.

[3] = system: cerebellar neurons on MAG-expressing CHO cells; assay: Priming of cerebellar neurons with rolipram; neurite outgrowth on MAG-expressing CHO cells; format: cell-based, rat; conditions: BDNF 200 ng/ml
Experimental: as §1

[4] = system: cerebellar neurons on MAG-expressing Chinese hamster ovary (CHO) cells; assay: Direct treatment of cerebellar neurons with rolipram; neurite outgrowth on MAG-expressing CHO cells; format: cell-based, rat
Experimental: Cerebellar neurons from P5 rats were isolated as described previously (Cai et al., 1999) Briefly, cerebellum was treated with 0.025% of trypsin, triturated and incubated for 10 min at 37° C. Trypsinization was stopped by adding an equal amount of DMEM containing 10% fetal calf serum (FCS). Cells were centrifuged at 800 rpm for 5 min. The cells were resuspended to a single-cell suspension in 2 ml of SATO (see Cai et al., 1999, herein incorporated by reference). The concentration of cells were adjusted to 6×10^4 cells/ml. […] Where indicated, dbcAMP (1 mM) or rolipram (0.1 uM, 0.25 uM, 0.5 uM or 1.0 uM) was added to the media. After 18 hours of culture, neurons were fixed and immunostained with a rabbit polyclonal antibody against […] (GAP43) to visualize the neurites. The length of the longest neurite of the first two hundred GAP43-positive neurons was determined using the Simple 32™ software (see Cai et al., 1999). The mean length of a neurite was determined and presented as the average length+/−SEM in micrometers (um). Results are expressed as a percentage of neurite length from neurons grown in the absence of dbcAMP or rolipram.

[5] = system: cerebellar neurons and DRG neurons on MAG-expressing CHO cells; assay: Subcutaneous rolipram injections into P12 rats; neurite outgrowth of isolated neurons on MAG-expressing CHO cells; format: in vivo, rat
Experimental: as §2
Rolipram was injected subcutaneously into P12 rats at concentrations of 0, 7.5, 20, 25 or 40 nmol/kg every 3 hours for 24 hours before sacrificing. […] Cerebellar neurons were isolated as described in Example 1. Dorsal root ganglia (DRG) neurons were isolated as described previously (De Bellard et al., 1996). Briefly, ganglia were removed from the animals and incubated in 5 ml of SATO media containing 0.025% of trypsin and 0.15% of collagenase type I (Worthington) for 1 hour at 37° C. The ganglia were triturated and trypsinization was stopped by adding 5 ml of DMEM containing 10% FCS. Ganglia were centrifuged at 800 rpm for 6 min, and resuspended in SATO. Neurons were cultured overnight on CHO monolayers as described in Example 1 before being fixed and immunostained for GAP43 to visualize the neurites, as described in Example 1. As a positive control, some neurons from control animals were also cultured overnight in the presence of 1 mM dbcAMP. The length of the longest neurite per neuron, from 180-200 neurons, was measured and results are the average length+/−SEM. Results are expressed as a percentage of growth of the neurons isolated from control animals, treated with saline/DMSO injections and plated on control CHO cells, without dbcAMP or rolipram treatment.

[6] = system: animal model for multiple sclerosis; conditions: cited from earlier work
rat model of arthritis = conditions: higher concentrations (5-10 and 20 umol/kg), rats; cited from earlier work
[7] = system: DRG neurons on MAG-expressing CHO cells; assay: Continuous subcutaneous rolipram delivery by minipumps to P30 rats; neurite outgrowth of isolated DRG neurons on MAG-expressing CHO cells; format: in vivo, rat; conditions: for axonal outgrowth in the presence of MAG and on control CHO cells: minipump 0.4 umol/kg/hour
Experimental: Rolipram was delivered subcutaneously with ALZET 2001 minipumps. Minipumps were inserted subcutaneously under the skin of the animals' backs. Two minipumps were used for each animal; the combined flow rate was 2 ul/hour. Rolipram was dissolved in DMSO and sterile saline was added to adjust the doses of rolipram that were released from minipumps every hour. After 24 hours of treatment, DRG neurons were isolated from control and treated animals and plated onto a monolayer of MAG-expressing CHO cells or a monolayer of control CHO cells. Neurons were cultured overnight before being fixed and immunostained for GAP43 to visualize the neurites. The length of the longest neurite per neuron from 180-200 neurons was measured. Results are expressed as a percentage of growth of the neurons isolated from control animals and are shown as the average length+/−SEM presented as percentage of growth on control cells.
as §3, with “In order to determine whether longer continuous treatment with a PDE4 inhibitor would increase the relief of inhibition of neurite outgrowth by myelin or MAG, rolipram was administered subcutaneously by minipump (0.4 umol/kg/hour). After 1, 2 or 3 days of continuous rolipram treatment, DRG” for “DRG”, “treated” for “treated P30”, “neurites.” for “neurites, as described in Example 1.”, “length+/−SEM,” for “length+/−SEM”

hippocampal slices = conditions: cited from earlier work
[8] = system: rats with complete spinal cord transection; assay: Complete transection of the spinal cord with Schwann cell bridge; BBB test of hindlimb locomotion; format: in vivo, rat
Source text: (§4) A “BBB Score” is the result of a test developed by Basso, Beattie and Bresnahan as a modifed 21-point open field locomoter scale on which to measure the extent of recovery of motor function in rats with after spinal cord injury. See, e.g, Basso et al., J. Neurotrauma 13(7):343-59 (1996); Beattie et al. (1997), herein incorporated by reference.
Adult rat spinal cords were completely transected at the T8 cord level and the next caudal segment was removed (Xu et al. (1997), herein incorporated by reference). Schwann cells were purified in culture from adult rat sciatic nerve, suspended in Matrigel: DMEM (30:70), and drawn into 8 mm long polymeric guidance channels at a density of 120×10^6 cells/ml. Xu et al. (1997). Each cut stump was inserted 1 mm into the channel. At the time of transection, a Schwann cell bridge was implanted at the injury site and rolipram was delivered subcutaneously via minipump at 0.07 umol/kg/hour for two weeks as described in Example 3B. As a negative control, animals were delivered saline only. As a positive control, 5 ul of 10 mM dbcAMP was infused in the proximal and distal stump of the lesion in animals. Animals were assessed on a weekly basis for hindlimb locomotion, which is a measure of their motor recovery, using the BBB test.

mice = conditions: cited from earlier work
[9] = system: rats with moderate spinal cord contusion; assay: Moderate contusive injury to the spinal cord; BBB test of hindlimb locomotion; format: in vivo, rat
Source text: as §4
Adult rat spinal cord were exposed and injured with a weight drop device (NYU). See Beattie et al. (1997) and Basso et al. (1996). At the same time as the injury was inflicted, rolipram was delivered subcutaneously via minipumps at 0.07 nmol/kg/hour for 2 weeks. One week after injury, Schwann cells, which had been grown and purified in culture, were injected into the lesion site along with 4 injections, each of 0.2 ul, of 1 mM dbcAMP. As a negative control, animals were injected with Schwann cells alone. Other animals were administered dbcAMP and Schwann cells. One group of animals was administered four injections, each of 0.2 ul, of 1 mM dbcAMP one week after injury. Another group was administered four injections, each of 0.2 ul, of 50 mM dbcAMP one week after injury. Another group was administered four injections, each of 0.2 ul, of 50 mM dbcAMP one day after injury. Animals were assessed on a weekly basis for hindlimb locomotion using the BBB test.

rats = conditions: cited from earlier work

COc1ccc(C2CNC(=O)C2)cc1OC1CCCC1 (stereo not shown) [rolipram]
inhibition of axonal growth by myelin after priming [1]: overcomes inhibition | length of the neurites, 1, 2 and 3 days of treatment compared ([2]; 0.5 umol/kg intermittent s.c. injections every three hours): no significant difference | length of the axons of DRG neurons, 24 hours treatment in comparison to 6 hours ([2]; 0.5 umol/kg repeated s.c. injections, FIG. 5): increased | inhibition of axonal outgrowth by MAG ([2]; 0.1-2.0 umol/kg s.c. every 3 hours for 24 hours, FIG. 4): blocked (i.e., relieved) by rolipram in a dose-dependent manner | most effective subcutaneous dose for relieving MAG inhibition ([2]; s.c. every 3 hours for 24 hours): 0.5 µmol/kg | blocking inhibition of axonal outgrowth by MAG after priming, compared with BDNF priming ([3]; priming 18 hours with rolipram 0.25 uM, FIG. 2): almost as effective as priming cerebellar neurons with BDNF | length of neurites on monolayer of CHO cells expressing MAG, as % of length of neurons treated with BDNF ([3]; priming with rolipram 0.25 uM): 95% | inhibition of axonal outgrowth by MAG ([4]; rolipram 0.25 uM-1.0 uM in media, 18 hours culture, P5 rat cerebellar neurons, FIG. 1): partially blocks | efficiency of blocking the inhibition of axonal outgrowth by MAG compared to dibutyryl-cAMP ([4]; rolipram 0.5 uM, comparator dbcAMP 1 mM): 80% | dose dependence of the effect on MAG inhibition of axonal outgrowth ([4]; rolipram 0.1-1.0 uM): dose-dependent | subsequent inhibition of neuronal growth by MAG ([5]; P12 rats, 7.5 nmol/kg s.c. every 3 hours for 24 hours): effectively blocks | inhibition of neuronal growth by MAG ([5]; P12 rats, 25 nmol/kg s.c. every 3 hours for 24 hours): essentially completely blocked | most effective subcutaneous dose for relieving MAG inhibition ([5]; P12 rats, s.c. every 3 hours for 24 hours): 20 nmol/kg | neurite length on control CHO cells ([5]; P12 rats, s.c. injections for 24 hours, control cells not expressing MAG): did not affect neurite length | crossing of the blood brain barrier ([5]; inferred from effect on cerebellar (CNS) and DRG neurons after s.c. administration): crossed the blood brain barrier | anti-inflammatory effect [6]: demonstrated | side effects (rat model of arthritis): No side effects | axonal outgrowth in the presence of MAG and on control CHO cells ([7]; 2 days): significantly promoted | axonal outgrowth in the presence of MAG and on control CHO cells ([7]; 3 days): even further promoted | optimal continuous dose for subsequent neuronal growth and regeneration ([7]; s.c. minipump, 0.4, 0.5, 0.7 umol/kg/hour tested): 0.4 µmol/kg/h | inhibition of DRG neurons by MAG after 24 hours of continuous treatment ([7]; s.c. minipump, 24 hours): no longer inhibited by MAG | basal cAMP levels (hippocampal slices; 1.0-3.0 umol/kg): Increased basal cAMP levels | basal cAMP levels in hippocampal slices (hippocampal slices; up to 0.3 umol/kg): did not raise basal cAMP levels | BBB score (motor recovery) ([8]; adult rats, complete transection at T8, Schwann cell bridge, minipump s.c. 0.07 umol/kg/hour for two weeks, vs saline): significantly increases | BBB score compared with administration of dbcAMP ([8]; rolipram 0.07 umol/kg/hour s.c., dbcAMP 5 ul of 10 mM infused in the stumps): essentially the same result | memory improving effects (mice; 3.0 umol/kg): did not have memory improving effects | side effects (mice; 0.1-3.0 umol/kg): No side effects | performance in a hippocampus-dependent memory task (mice; mice, 0.1 umol/kg s.c.): improved the performance | motor skill recovery as measured by the BBB score ([9]; adult rats, minipump s.c. 0.07 nmol/kg/hour for 2 weeks plus Schwann cells and 4 injections of 1 mM dbcAMP one week after injury, from 2 up to 7 weeks after injury): significantly improved | BBB score achieved ([9]; continuous rolipram plus Schwann cells and dbcAMP, greater than 15 is scored as complete recovery): greater than 15 | concentrations at which sedative effects were demonstrated (rats): 5 to 10 µmol/kg

— patent publication US20030229134A1, “Methods for stimulating nervous system regeneration and repair by inhibiting phosphodiesterase type 4” (priority 2000, published 2003)
